# “Also recorded” adds a separate entry of the source. Like-named read-outs stand apart in the source and are kept apart here.
# Experiments:
# [1] = Water solubility (suspension in water or PBS-buffer, HPLC)
# Procedure: Water Solubility: Paclitaxel or paclitaxel prodrugs (5, 6, 8, 11) were suspended in water or PBS-buffer (pH 7.4) until a concentration was reached of 2 mg/ml. The suspensions were sonicated for 15 minutes and centrifuged (13000 g) for 10 minutes (Nicolaou, K. C. et al. Nature 1993, 364, 464-466). The above fluid was analyzed, using HPLC. The paclitaxel (prodrug) concentration was determined using paclitaxel standards in methanol.
# HPLC: Rheodyne injection valve (20 μl loop); Lichrospher 5RP18 column (200×3 mm, Chrompack); UV-detector (Model 759A, Applied Biosystems); eluent: CH3CN/MeOH/H2O: 5/1/4 in 10 mM NH4OAc (pH 5.0) (Willey, T. A. J. Chromatography 1993, 621, 231-238). The detection of the (pro)drugs was performed at 226 nm, where it is supposed that the extinction coefficients of paclitaxel and paclitaxel prodrugs are equal. The concentrations were determined by measuring the relative area of paclitaxel or the paclitaxel prodrugs.
# [2] = Stability in PBS-buffer (pH 7.4), degradation to paclitaxel; format: physicochemical; conditions: for stability in PBS buffer: PBS-buffer pH 7.4
# Procedure: The paclitaxel prodrugs (5, 6, 8, 11) were dissolved in water, sonicated and centrifuged. 100 μl of the above fluid was mixed with 400 μl of plasma (heparin) or PBS-buffer (pH7.4), respectively, in such way that the concentration of the prodrug was about 0.5 mg/mL. […] After mixing for 2 minutes (using a vortex), this mixture was centrifuged (2 minutes, 13000 g) and 100 μl EtOAc was evaporated (30 minutes, in vacuo). The (pro)drugs were dissolved in 50 μl eluent and analyzed by HPLC (Longnecker, S. M. Cancer Treat Rep. 1987, 71, 53-59). The efficiency for the extraction of paclitaxel was about 80%.
# [3] = Stability in human plasma, degradation to paclitaxel; format: in vitro ADME; conditions: for T1/2 Human Plasma: human plasma (heparin), 37° C., time in which 50% of the analog is degraded to paclitaxel
# Procedure: The paclitaxel prodrugs (5, 6, 8, 11) were dissolved in water, sonicated and centrifuged. 100 μl of the above fluid was mixed with 400 μl of plasma (heparin) or PBS-buffer (pH7.4), respectively, in such way that the concentration of the prodrug was about 0.5 mg/mL. The plasma or PBS-buffer, respectively, was incubated at 37° C. and on different points in time (T=0, 0.5, 1, 4, 20, 48 hours) 50 μl was extracted with 150 μl of EtOAc. After mixing for 2 minutes (using a vortex), this mixture was centrifuged (2 minutes, 13000 g) and 100 μl EtOAc was evaporated (30 minutes, in vacuo). The (pro)drugs were dissolved in 50 μl eluent and analyzed by HPLC (Longnecker, S. M. Cancer Treat Rep. 1987, 71, 53-59). The efficiency for the extraction of paclitaxel was about 80%.
# [4] = tested on: MCF7 Breast cancer; experiment: Antiproliferative SRB assay, MCF7; format: cell-based, human; conditions: 37° C. 72 h, vs untreated cells
# Procedure: (§1) Determination of the IC50-values for the new synthesized prodrugs have been determined with a variety of cell lines and have been compared with the IC50-value of paclitaxel 1 (see table II) Compounds 1, 5, 8, 11,:
# (§2) The following human tumor cell lines were used:
# (§3) MCF7 is estrogen receptor ER+/Progesterone receptor PgR+ and EVSA-T is ER-/PgR-.
# (§4) Prior to the experiments a myocoplasma test was carried out on all cell lines and found to be negative. All cell lines, except ETSA-T, were maintained in a continuous logarithmic culture in RPMI medium with Hepes and Phenol red supplemented with 10% bovine calf serum (BCS), penicillin 111 IU/ml, streptomycin 111 μg/ml, gentamycin 46 μg/ml and insulin 10.6 μg/ml. EVSA-T was maintained in DMEM with 5% BCS and antibiotics as described. The cells were mildly trypsinized for passage and for use in experiments.
# (§5) The compounds of this invention were dissolved to a concentration of 177147 ng/ml as follows:
# (§6) On day 0, 200 μl of trypsinized tumor cells (2*10^3 cells/well) were plated in 96-wells flatbottom microtiter plates (Costar, no. 3799, Badhoevedorp, The Netherlands). The plates were preincubated 24 hr at 37° C., 5% CO2 to allow the cells to adhere.
# (§7) […] The final volume of column 3 was adjusted to 200 μl with PBS. Column 2 was used for the blank. To column 1 PBS was added to diminish interfering evaporation.
# (§8) […] Subsequently the cells were fixed with 10% trichloroacetic acid in Milli Q water (Millipore, Etten Leur, The Netherlands) and placed at 4° C. for one hour.
# (§9) After five washings with tap water, the cells were stained for at least 15 min. with 0.4% SRB, dissolved in 1% acetic acid, and subsequently washed with 1% acetic acid to remove the unbound stain. The plates were air dried and the bound protein was dissolved by using 150 μl 10 mmol/l tris base. The absorbance was read at 540 nm using an automatic microplate reader (Titertec, Flow Laboratories LtD., Irvine, Scotland). Data were used for construction of concentration-response curves and determination of the IC50-value.
# [5] = tested on: EVSA-T Breast cancer; experiment: Antiproliferative SRB assay, EVSA-T; format: cell-based, human; conditions: 37° C. 72 h, vs untreated cells
# Procedure: as §1, §2, §3, §4, §5, §6, §7, §8, §9
# [6] = tested on: WIDR Colon cancer; experiment: Antiproliferative SRB assay, WIDR; format: cell-based, human; conditions: vs untreated cells
# Text: as §1, §2
# (§10) Cell lines WIDR, M19 MEL, A498 and IGROV belong to the currently used anti-cancer screening panel of the National Cancer Institute, USA (Skeham et al., J. Nat. Cancer Inst. 85: 1107-1112, 1990).
# as §4, §5, §6, §7, §8, §9
# [7] = tested on: IGROV Ovarian cancer; experiment: Antiproliferative SRB assay, IGROV; format: cell-based, human; conditions: 37° C. 72 h, vs untreated cells
# Text: as §1, §2, §10, §4, §5, §6, §7, §8, §9
# [8] = tested on: M19 MEL Melanoma; experiment: Antiproliferative SRB assay, M19 MEL; format: cell-based, human; conditions: vs untreated cells
# Text: as §1, §2, §10, §4, §5, §6, §7, §8, §9
# [9] = tested on: A498 Renal cancer; experiment: Antiproliferative SRB assay, A498; format: cell-based, human; conditions: 37° C. 72 h, vs untreated cells
# Text: as §1, §2, §10, §4, §5, §6, §7, §8, §9
# [10] = tested on: H226; experiment: Antiproliferative SRB assay, H226; format: cell-based, human; conditions: vs untreated cells
# Procedure: as §1, §2
# […] non small cell lung cancer
# as §4, §5, §6, §7, §8, §9
# [11] = tested on: human tumor cell lines; experiment: Cytotoxic activity in human tumor cell lines, overall comparison with paclitaxel; format: cell-based
# Procedure: as §1, §2, §6
# On day 2, 100 μl of the highest drug concentration was added to the wells of column 12 and from there diluted 3-fold to column 3 by serial transfer of 100 μl using an 8 channel micropipette. The final volume of column 3 was adjusted to 200 μl with PBS. Column 2 was used for the blank. To column 1 PBS was added to diminish interfering evaporation.
# On day 7 the incubation was terminated by washing the plates twice with PBS. […]
# After five washings with tap water, the cells were stained for at least 15 min. with 0.4% SRB, dissolved in 1% acetic acid, and subsequently washed with 1% acetic acid to remove the unbound stain. […] The absorbance was read at 540 nm using an automatic microplate reader (Titertec, Flow Laboratories LtD., Irvine, Scotland). […]
# [12] = tested on: OVCAR-3 cells; experiment: In vitro antiproliferative effects, OVCAR-3; format: cell-based, human; conditions: for IC50: 37° C. 72 h, vs untreated cells
# Procedure: The human tumor cell line OVCAR-3 was used. OVCAR is an ovarium carcinoma.
# In vitro antiproliferative effects: paclitaxel or paclitaxel prodrugs were dissolved in DMSO to give a concentration of 5 mM. Concentrations were verified by measuring the OD at 226 nm. The antiproliferative effects of drugs and prodrugs were determined with the use of OVCAR-3 cells. Cells in supplemented tissue culture medium (DMEM, 10% fetal calf serum with 50 IU/ml penicillin and 50 microgram/ml streptomycin) were seeded in triplicate in 96-well culture plates (5000/well, 100 microliter). After 24 h, 100 microliter of culture medium containing drug or prodrug was added to give final concentrations ranging from 1 picomolar to 10 micromolar.
# The cells were incubated for an additional 72 h, fixed with 10% trichoroacetic acid and stained with sulforhodamine B. The absorbance at 540 nm was read and the antiproliferative effects were expressed as IC50 values, inhibition when compared with control cell growth (Houba et al. Bioconj. Chem. 1996, 7, 606-611).
SMILES,Water Solubility [1] [mg/mL],stability in PBS buffer [2],degradation to paclitaxel in human plasma [3],T1/2 Human Plasma [3],IC50 MCF7 [4] [ng/mL],IC50 EVSA-T [5] [ng/mL],IC50 WIDR [6] [ng/mL],IC50 IGROV [7] [ng/mL],IC50 M19 MEL [8] [ng/mL],IC50 A498 [9] [ng/mL],IC50 H226 [10] [ng/mL],cytotoxic activity compared to paclitaxel [11],"paclitaxel detected in PBS-buffer after 24 hours ([2]; PBS-buffer pH 7.4, after 24 hours)","Water Solubility ([1]; suspended to 2 mg/ml, sonicated 15 minutes, centrifuged, HPLC) [mg/mL]",IC50 [12] [nM],water solubility compared with paclitaxel [1],water solubility relative to paclitaxel (times more watersoluble) [1],"amount degraded to paclitaxel within 4 hours ([3]; within 4 hours, matrix not printed in the sentence (human plasma per Table I))",activity against OVCAR-3 cells compared to paclitaxel [12]
"CC(=O)O[C@H]1C(=O)[C@]2(C)[C@@H](OC(=O)CC(O)C(=O)O)C[C@H]3OC[C@@]3(OC(C)=O)[C@H]2[C@H](OC(=O)c2ccccc2)[C@]2(O)C[C@H](OC(=O)[C@H](O)[C@@H](NC(=O)c3ccccc3)c3ccccc3)C(C)=C1C2(C)C (stereo partly drawn) [Compound 11, 7-Malylpaclitaxel]",0.003,sufficient stability; also recorded: no degradation to the parent drug,no degradation to the parent drug,no pacl.^b,390,300,589,241,1344,1435,706,reduced cytotoxic activity,,,,,,,
"CC(=O)O[C@H]1C(=O)[C@@]2(C)[C@H]([C@H](OC(=O)c3ccccc3)[C@]3(O)C[C@H](OC(=O)[C@H](OC(=O)CC(O)C(=O)O)[C@@H](NC(=O)c4ccccc4)c4ccccc4)C(C)=C1C3(C)C)[C@]1(OC(C)=O)CO[C@@H]1C[C@@H]2O (stereo partly drawn) [Compound 5, 2′-Malylpaclitaxel]",0.2,sufficient stability; also recorded: stable,,20 h,<3,<3,<3,<3,3,39,10,,only traces,,,,,,
"CC(=O)O[C@H]1C(=O)[C@@]2(C)[C@H]([C@H](OC(=O)c3ccccc3)[C@]3(O)C[C@H](OC(=O)[C@H](O)[C@@H](NC(=O)c4ccccc4)c4ccccc4)C(C)=C1C3(C)C)[C@]1(OC(C)=O)CO[C@@H]1C[C@@H]2O [paclitaxel, Paclitaxel]",,,,,<3,<3,<3,33,<3,5,<3,,,0.01,0.25,,,,
"CC(=O)O[C@H]1C(=O)[C@@]2(C)[C@H]([C@H](OC(=O)c3ccccc3)[C@]3(O)C[C@H](OC(=O)[C@H](OC(=O)CC(O)C(=O)[O-])[C@@H](NC(=O)c4ccccc4)c4ccccc4)C(C)=C1C3(C)C)[C@]1(OC(C)=O)CO[C@@H]1C[C@@H]2O.[Na+] (stereo partly drawn) [Compound 6, Sodium salt of 2′-malylpaclitaxel]",0.6,sufficient stability,fast hydrolysis rate,4 h,<3,<3,<3,233,<3,<3,<3,,,,0.8,Best water solubility,sixty,about 500,comparable

# From patent US6344571B2, “Water soluble analogs and prodrugs of paclitaxel” (Pharmachemie B.V., priority 1998, dated 2002)
